Numbered stars: 1 amine (or outer) side, 2 acyl side, 3 side chain; on linkers, the order of the positions; unused ones are H or OH. Side chains are listed from the residue outwards. Peptide text beside a SMILES is read from it. * marks the point of attachment. C18 diacid = O=C(O)CCCCCCCCCCCCCCCCC(=O)*; γGlu = O=C(O)[C@H](CCC(=O)[*:2])N[*:1]; Palmitoyl = CCCCCCCCCCCCCCCC(=O)*; AEEA = NCCOCCOCC(=O)O

Common to all, as to assay type: functional, cell-based
The target of test [1] is T1, Glucagon-like peptide 1 receptor (Homo sapiens, UniProt P43220). The experiment in a line: Agonist activity at human GLP-1 receptor expressed in HEK293 cells assessed as cAMP level measured after 60 mins by HTRF based assay. (Changes in cAMP serve as a functional read-out for many G protein-coupled receptors.)
Test [2] deals with T1, Glucagon-like peptide 1 receptor. Put plainly: Agonist activity at human GLP-1 receptor expressed in HEK293 cells assessed as cAMP level by measuring relative percent (GLP-1 EC50/compound EC50) measured after 60 mins by HTRF based assay relative to GLP-1.
For test [3], the target named is T2, Glucagon receptor (Homo sapiens, UniProt P47871). The experiment in a line: Agonist activity at human GCGR expressed in HEK293 cells assessed as cAMP level measured after 60 mins by HTRF based assay.
Test [4] addresses T2, Glucagon receptor. Put plainly: Agonist activity at human GCGR expressed in HEK293 cells assessed as cAMP level by measuring relative percent (glucagon EC50/compound EC50) measured after 60 mins by HTRF based assay relative to glucagon.

T1 sequence (P43220 whole entry): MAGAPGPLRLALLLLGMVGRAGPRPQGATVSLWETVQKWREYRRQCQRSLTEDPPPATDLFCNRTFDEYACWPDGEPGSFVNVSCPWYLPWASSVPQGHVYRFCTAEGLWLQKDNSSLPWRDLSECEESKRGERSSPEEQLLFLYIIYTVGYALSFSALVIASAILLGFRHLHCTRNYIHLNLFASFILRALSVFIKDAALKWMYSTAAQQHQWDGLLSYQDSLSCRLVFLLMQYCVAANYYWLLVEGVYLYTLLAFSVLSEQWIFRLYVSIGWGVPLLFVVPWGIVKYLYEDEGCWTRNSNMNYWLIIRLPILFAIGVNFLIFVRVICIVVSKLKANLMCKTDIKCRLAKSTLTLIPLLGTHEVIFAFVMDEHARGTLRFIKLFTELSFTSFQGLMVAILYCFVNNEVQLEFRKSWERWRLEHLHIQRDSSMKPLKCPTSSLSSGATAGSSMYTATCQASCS
T2 sequence (P47871 whole entry): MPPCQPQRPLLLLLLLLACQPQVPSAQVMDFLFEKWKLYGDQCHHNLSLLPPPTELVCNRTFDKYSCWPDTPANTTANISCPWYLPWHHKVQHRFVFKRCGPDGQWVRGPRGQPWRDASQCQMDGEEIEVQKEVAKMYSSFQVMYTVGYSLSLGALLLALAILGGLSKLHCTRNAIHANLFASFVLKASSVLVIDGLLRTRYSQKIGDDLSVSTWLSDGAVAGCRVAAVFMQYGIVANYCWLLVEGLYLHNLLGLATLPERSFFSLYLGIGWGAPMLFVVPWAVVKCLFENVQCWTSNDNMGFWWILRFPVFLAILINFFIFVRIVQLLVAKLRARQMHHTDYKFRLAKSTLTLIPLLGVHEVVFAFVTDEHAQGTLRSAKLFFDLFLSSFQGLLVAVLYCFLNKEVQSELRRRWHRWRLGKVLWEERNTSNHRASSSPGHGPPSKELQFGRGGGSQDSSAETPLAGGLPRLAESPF

In general, EC50 refers to the midpoint of the concentration-response curve. Turning to H-HADGTFTSDMSSYLEEKAAKEFVDWLIKGRAK-NH2, the half-maximal effective concentration (EC50) in test [1] came out at 0.099 nM.

H-HADGTFTSDMSSYLEEKAAKEFVAWLIKGRPK-NH2: the concentration giving a half-maximal response (EC50) in test [1] stood at 0.096 nM.

For the molecule H-HADGTFTSDMSSYLEEKAAKEFVDALIKGRPK-NH2, the EC50 in test [1] was 0.092 nM.

Take H-HADGTFTSDMSSYLEEKAAKEFVDWLIAGRPK-NH2: the concentration giving a half-maximal response (EC50) in test [1] amounted to 0.12 nM.

H-HSQGTFTSDMSSYLDSRRAQDFVDWLIKGR-NH2: the EC50 amounted to 0.7 nM in test [1] and 3.1 nM on Glucagon receptor [3]. Moreover, the Activity in test [2] is 5%; at Glucagon receptor [4], 3%.

As to “H-HSQGTFTSDMSSYLDSRRAQDFVDWLKNGGPSSGAPPPS-NH2”, the values for the concentration giving a half-maximal response (EC50) (in test [1]; on Glucagon receptor [3]) were 0.061 nM and 0.15 nM, respectively. Further, the results for the Activity (in test [2] (filed as agonist); on Glucagon receptor [4] (filed as agonist)) were 87% and 61%, respectively.

On to H-HADGTFTSDMSSYLEEKAAKEFVDWAIKGRPK-NH2, for which the EC50 in test [1] was found to be 0.53 nM.

Consider “H-HSQGTFTSDMSKYLDSRRAQDFVDWLIKGRPSSGAPPPS-NH2”, for which the 50% effective concentration (EC50) in test [1] is 0.13 nM; on Glucagon receptor [3], 0.91 nM. Further, the Activity in test [2] (filed as agonist) is 41%; at Glucagon receptor [4] it was 10%.

For H-HSQGTFTSDMSSYLDSRRAQDFVDWLMNT-NH2, the 50% effective concentration (EC50) was 0.96 nM in test [1] and 0.51 nM at Glucagon receptor [3]. For the same molecule, the results for the Activity (in test [2]; at Glucagon receptor [4]) were 6% and 18%, respectively.

For `CSCC[C@H](NC(=O)[C@H](CC(=O)O)NC(=O)[C@H](CO)NC(=O)[C@@H](NC(=O)[C@H](Cc1ccccc1)NC(=O)[C@@H](NC(=O)CNC(=O)[C@H](CCC(N)=O)NC(=O)[C@H](CO)NC(=O)[C@@H](N)Cc1c[nH]cn1)[C@@H](C)O)[C@@H](C)O)C(=O)N[C@@H](CO)C(=O)N[C@@H](CCCCNC(=O)COCCOCCNC(=O)COCCOCCNC(=O)CC[C@H](NC(=O)CCCCCCCCCCCCCCCCC(=O)O)C(=O)O)C(=O)N[C@@H](Cc1ccc(O)cc1)C(=O)N[C@@H](CC(C)C)C(=O)N[C@@H](CC(=O)O)C(=O)N[C@@H](CO)C(=O)N[C@@H](CCCNC(=N)N)C(=O)N[C@@H](CCCNC(=N)N)C(=O)N[C@@H](C)C(=O)N[C@@H](CCC(N)=O)C(=O)N[C@@H](CC(=O)O)C(=O)N[C@@H](Cc1ccccc1)C(=O)N[C@H](C(=O)N[C@@H](CC(=O)O)C(=O)N[C@@H](Cc1c[nH]c2ccccc12)C(=O)N[C@@H](CC(C)C)C(=O)N[C@@H](CCCCN)C(=O)N[C@@H](CC(N)=O)C(=O)NCC(=O)NCC(=O)N1CCC[C@H]1C(=O)N[C@@H](CO)C(=O)N[C@@H](CO)C(=O)NCC(=O)N[C@@H](C)C(=O)N1CCC[C@H]1C(=O)N1CCC[C@H]1C(=O)N1CCC[C@H]1C(=O)N[C@@H](CO)C(N)=O)C(C)C` (H-HSQGTFTSDMSK([AEEA-AEEA-γGlu-C18 diacid])YLDSRRAQDFVDWLKNGGPSSGAPPPS-NH2), the concentration for a half-maximal effect (EC50) in test [1] was 0.052 nM; on Glucagon receptor [3], 1.4 nM. For the same molecule, the Activity in test [2] (filed as agonist) turned out to be 102%; on Glucagon receptor [4] it was 7%.

In the case of H-HADGTFTSDMSAYLEEKAAKEFVDWLIKGRPK-NH2, in test [1], the EC50 was found to be 0.12 nM.

Turning to H-HADGTFTSDMSSYLEEKRAKEFVDWLIKGRPK-NH2, the concentration giving a half-maximal response (EC50) in test [1] stood at 0.72 nM.

In the case of H-HAEGTYTDDVSTYLQDQAAKDFVSWLKSGRA-NH2, the EC50 in test [1] came to 0.31 nM.

On to `CCCCCCCCCCCCCCCC(=O)N[C@@H](CCC(=O)NCCCC[C@H](NC(=O)[C@H](CO)NC(=O)[C@@H]1CCCN1C(=O)[C@@H]1CCCN1C(=O)[C@@H]1CCCN1C(=O)[C@H](C)NC(=O)CNC(=O)[C@H](CO)NC(=O)[C@H](CO)NC(=O)[C@@H]1CCCN1C(=O)CNC(=O)CNC(=O)[C@H](CC(N)=O)NC(=O)[C@H](CCCCN)NC(=O)[C@H](CC(C)C)NC(=O)[C@H](Cc1c[nH]c2ccccc12)NC(=O)[C@H](CC(=O)O)NC(=O)[C@@H](NC(=O)[C@H](Cc1ccccc1)NC(=O)[C@H](CC(=O)O)NC(=O)[C@H](CCC(N)=O)NC(=O)[C@H](C)NC(=O)[C@H](CCCNC(=N)N)NC(=O)[C@H](CCCNC(=N)N)NC(=O)[C@H](CO)NC(=O)[C@H](CC(=O)O)NC(=O)[C@H](CC(C)C)NC(=O)[C@H](Cc1ccc(O)cc1)NC(=O)[C@H](CCCCN)NC(=O)[C@H](CO)NC(=O)[C@H](CCSC)NC(=O)[C@H](CC(=O)O)NC(=O)[C@H](CO)NC(=O)[C@@H](NC(=O)[C@H](Cc1ccccc1)NC(=O)[C@@H](NC(=O)CNC(=O)[C@H](CCC(N)=O)NC(=O)[C@H](CO)NC(=O)[C@@H](N)Cc1c[nH]cn1)[C@@H](C)O)[C@@H](C)O)C(C)C)C(N)=O)C(=O)O` (H-HSQGTFTSDMSKYLDSRRAQDFVDWLKNGGPSSGAPPPSK([γGlu-Palmitoyl])-NH2), for which the figures for the half-maximal effective concentration (EC50) (in test [1]; at Glucagon receptor [3]) were 0.068 nM and 0.53 nM, respectively. The Activity in test [2] (filed as agonist) was found to be 78%; at Glucagon receptor [4], 17%.

On to H-HADGTFTSDMSSYLAEKAAKEFVDWLIKGRPK-NH2, for which the concentration giving a half-maximal response (EC50) in test [1] was determined as 0.61 nM.

Take H-HADGTFTSDMSSYLEEKAAKAFVDWLIKGRPK-NH2: the EC50 in test [1] came out at 0.11 nM.

“H-HSQGTFTSDMSSYLDSRRAQDFVDWLIKGRPSSGAPPPS-NH2”: the concentration for a half-maximal effect (EC50) came out at 0.21 nM in test [1] and 1.8 nM at Glucagon receptor [3]. The values for the Activity (in test [2]; on Glucagon receptor [4]) were 25% and 5%, respectively.

With H-HADGTFTSDMSSYLEEKAAKEFVDWLIKGAPK-NH2, the EC50 in test [1] is 0.097 nM.

As for `CCCCCCCCCCCCCCCC(=O)N[C@@H](CCC(=O)NCCCC[C@H](NC(=O)[C@H](CO)NC(=O)[C@H](CCSC)NC(=O)[C@H](CC(=O)O)NC(=O)[C@H](CO)NC(=O)[C@@H](NC(=O)[C@H](Cc1ccccc1)NC(=O)[C@@H](NC(=O)CNC(=O)[C@H](CCC(N)=O)NC(=O)[C@H](CO)NC(=O)[C@@H](N)Cc1c[nH]cn1)[C@@H](C)O)[C@@H](C)O)C(=O)N[C@@H](Cc1ccc(O)cc1)C(=O)N[C@@H](CC(C)C)C(=O)N[C@@H](CC(=O)O)C(=O)N[C@@H](CO)C(=O)N[C@@H](CCCNC(=N)N)C(=O)N[C@@H](CCCNC(=N)N)C(=O)N[C@@H](C)C(=O)N[C@@H](CCC(N)=O)C(=O)N[C@@H](CC(=O)O)C(=O)N[C@@H](Cc1ccccc1)C(=O)N[C@H](C(=O)N[C@@H](CC(=O)O)C(=O)N[C@@H](Cc1c[nH]c2ccccc12)C(=O)N[C@@H](CC(C)C)C(=O)N[C@@H](CCCCN)C(=O)N[C@@H](CC(N)=O)C(=O)NCC(=O)NCC(=O)N1CCC[C@H]1C(=O)N[C@@H](CO)C(=O)N[C@@H](CO)C(=O)NCC(=O)N[C@@H](C)C(=O)N1CCC[C@H]1C(=O)N1CCC[C@H]1C(=O)N1CCC[C@H]1C(=O)N[C@@H](CO)C(N)=O)C(C)C)C(=O)O` (H-HSQGTFTSDMSK([γGlu-Palmitoyl])YLDSRRAQDFVDWLKNGGPSSGAPPPS-NH2), the EC50 in test [1] amounted to 0.046 nM; at Glucagon receptor [3] it was 0.19 nM. Also, the results for the Activity (in test [2] (filed as agonist); on Glucagon receptor [4] (filed as agonist)) were 115% and 48%, respectively.

On to H-HADGTFTSDMSSYLEEKAAKEFVDWLIKGRPK-NH2, for which the EC50 in test [1] is 0.051 nM.

On to “H-HADGTYTSDVSSYLQDQAAKKFVTWLKQGQDRRE-NH2”, for which the concentration giving a half-maximal response (EC50) in test [1] came to 0.35 nM.

Take “H-HADGIYTSDVASLTDYLKSKRFVESLSNYNRKQNDRRM-NH2”: in test [1], the EC50 came to 0.19 nM.

Turning to H-HADGTFTSDMSSYLEEKAAKEAVDWLIKGRPK-NH2, the EC50 in test [1] turned out to be 0.66 nM.

For the molecule H-HADGTFTSDMSSALEEKAAKEFVDWLIKGRPK-NH2, the half-maximal effective concentration (EC50) in test [1] came out at 0.56 nM.

In the case of H-HADGTFTSDMSSYLEEKAAKEFVDWLIKGRPA-NH2, the EC50 in test [1] stood at 0.018 nM.

For H-HADGTFTSDMSSYLEEKAAKEFVDWLIKARPK-NH2, the concentration giving a half-maximal response (EC50) in test [1] amounted to 0.63 nM.

For the molecule H-HADGTFTNDMTSYLDAKAARDFVSWLARSDKS-NH2, the EC50 in test [1] stood at 0.23 nM.

Consider H-HADGTFTSDMSSYLEEKAAKEFADWLIKGRPK-NH2, for which the concentration for a half-maximal effect (EC50) in test [1] stood at 0.094 nM.

The record behind these values is ChEMBL document CHEMBL5532661, “Discovery of a Novel Glucagon-like Peptide-1 (GLP-1) Analogue from Bullfrog and Investigation of Its Potential for Designing GLP-1-Based Multiagonists” (J Med Chem, 2024).
